Molecules are shown by their SMILES.

The record followed here is PMC5218480 (PLoS ONE, 2017).

The test system of the experiment is MV-4-11 cells. Kind of experiment: Gene expression microarray analysis (Affymetrix PrimeView) and GSEA. The format is cell-based, human. On the set-up: RFU PODN (11730768_x_at) / Fold change /veh PODN (11730768_x_at) / RFU LINC00158 (11744669_a_at) / Fold change /veh LINC00158 (11744669_a_at) / RFU DUSP10 (11751237_a_at) / Fold change /veh DUSP10 (11751237_a_at) / RFU ID3 (11757404_x_at) / Fold change /veh ID3 (11757404_x_at) / RFU PLEKHG5 (11737974_s_at) / Fold change /veh PLEKHG5 (11737974_s_at) / RFU LRRC4B (11730491_at) / Fold change /veh LRRC4B (11730491_at) / RFU GIMAP4 (11747438_a_at) / Fold change /veh GIMAP4 (11747438_a_at) / RFU KRT8 (11758183_x_at) / Fold change /veh KRT8 (11758183_x_at) / RFU CNN1 (11734310_a_at) / Fold change /veh CNN1 (11734310_a_at) / RFU VPS37D (11726825_at) / Fold change /veh VPS37D (11726825_at) / RFU C10orf10 (11716522_x_at) / Fold change /veh C10orf10 (11716522_x_at) / RFU KIR2DL2 /// KIR2DL4 /// KIR2DL5A /// KIR2DL5B /// KIR2DS1 /// KIR2DS2 /// KIR2DS3 /// KIR2DS4 /// KIR3DL3 /// KIR3DL3 /// KIR3DS1 (11738374_at) / Fold change /veh KIR2DL2 /// KIR2DL4 /// KIR2DL5A /// KIR2DL5B /// KIR2DS1 /// KIR2DS2 /// KIR2DS3 /// KIR2DS4 /// KIR3DL3 /// KIR3DL3 /// KIR3DS1 (11738374_at) / RFU C1QL1 (11718748_at) / Fold change /veh C1QL1 (11718748_at) / RFU TMPRSS4 (11747572_a_at) / Fold change /veh TMPRSS4 (11747572_a_at) / RFU HAMP (11756126_x_at) / Fold change /veh HAMP (11756126_x_at) / RFU RNFT2 (11725882_a_at) / Fold change /veh RNFT2 (11725882_a_at) / RFU NR4A2 (11747474_a_at) / Fold change /veh NR4A2 (11747474_a_at) / RFU ABCC12 (11746883_a_at) / Fold change /veh ABCC12 (11746883_a_at) / RFU TMEM136 (11760407_x_at) / Fold change /veh TMEM136 (11760407_x_at) / RFU CLDN22 /// WWC2 (11732394_at) / Fold change /veh CLDN22 /// WWC2 (11732394_at) / RFU HLA-DPB1 (11760878_x_at) / Fold change /veh HLA-DPB1 (11760878_x_at) / RFU SPINT1 (11716480_a_at) / Fold change /veh SPINT1 (11716480_a_at) / RFU GAP43 (11754022_s_at) / Fold change /veh GAP43 (11754022_s_at) / RFU A4GNT (11735810_at) / Fold change /veh A4GNT (11735810_at) / RFU PRB3 (11715151_x_at) / Fold change /veh PRB3 (11715151_x_at) / RFU TUBB4B (11761932_at) / Fold change /veh TUBB4B (11761932_at) / RFU CAPN14 (11732068_a_at) / Fold change /veh CAPN14 (11732068_a_at) / RFU TMCC2 (11721928_a_at) / Fold change /veh TMCC2 (11721928_a_at) / RFU IRGQ (11745062_a_at) / Fold change /veh IRGQ (11745062_a_at) / RFU FAM174B (11720279_a_at) / Fold change /veh FAM174B (11720279_a_at) / RFU TMPRSS4 (11748680_a_at) / Fold change /veh TMPRSS4 (11748680_a_at) / RFU FAM212B (11763350_a_at) / Fold change /veh FAM212B (11763350_a_at) / RFU PLEKHG5 (11743358_a_at) / Fold change /veh PLEKHG5 (11743358_a_at) / RFU ZSCAN30 (11745921_a_at) / Fold change /veh ZSCAN30 (11745921_a_at) / RFU CMKLR1 (11741424_a_at) / Fold change /veh CMKLR1 (11741424_a_at) / RFU LOC101060620 /// MAPK8IP1 (11723275_at) / Fold change /veh LOC101060620 /// MAPK8IP1 (11723275_at) / RFU SPTSSB (11747773_x_at) / Fold change /veh SPTSSB (11747773_x_at) / RFU PRSS12 (11739890_at) / Fold change /veh PRSS12 (11739890_at) / RFU BIN1 (11741810_x_at) / Fold change /veh BIN1 (11741810_x_at) / RFU WNT11 (11732464_a_at) / Fold change /veh WNT11 (11732464_a_at) / RFU C10orf10 (11716521_a_at) / Fold change /veh C10orf10 (11716521_a_at) / RFU C5orf56 (11738089_at) / Fold change /veh C5orf56 (11738089_at) / RFU CYB561 (11721691_x_at) / Fold change /veh CYB561 (11721691_x_at) / RFU ANKRD19P (11752326_a_at) / Fold change /veh ANKRD19P (11752326_a_at) / RFU OR2T12 /// OR2T33 /// OR2T8 (11738714_s_at) / Fold change /veh OR2T12 /// OR2T33 /// OR2T8 (11738714_s_at) / RFU VCAN (11748164_a_at) / Fold change /veh VCAN (11748164_a_at) / RFU JSRP1 (11732532_at) / Fold change /veh JSRP1 (11732532_at) / RFU KRTAP10-11 (11738290_x_at) / Fold change /veh KRTAP10-11 (11738290_x_at) / RFU MYO3A (11730013_a_at) / Fold change /veh MYO3A (11730013_a_at) / RFU EBF3 (11725865_a_at) / Fold change /veh EBF3 (11725865_a_at) / RFU CAMK2N1 (11719241_x_at) / Fold change /veh CAMK2N1 (11719241_x_at) / RFU C5orf56 (11738088_a_at) / Fold change /veh C5orf56 (11738088_a_at) / RFU OLFML3 (11715873_a_at) / Fold change /veh OLFML3 (11715873_a_at) / RFU LOC100653217 /// NTM (11731650_a_at) / Fold change /veh LOC100653217 /// NTM (11731650_a_at) / RFU MAPK11 (11762145_a_at) / Fold change /veh MAPK11 (11762145_a_at) / RFU FIZ1 (11724087_x_at) / Fold change /veh FIZ1 (11724087_x_at) / RFU OASL (11726364_x_at) / Fold change /veh OASL (11726364_x_at) / RFU SOX15 (11748057_x_at) / Fold change /veh SOX15 (11748057_x_at) / RFU CD79A (11719716_a_at) / Fold change /veh CD79A (11719716_a_at) / RFU HIST1H1D (11736915_at) / Fold change /veh HIST1H1D (11736915_at) / RFU CASKIN2 (11723855_a_at) / Fold change /veh CASKIN2 (11723855_a_at) / RFU LOC730098 (11760151_x_at) / Fold change /veh LOC730098 (11760151_x_at) / RFU OR4N2 (11742367_at) / Fold change /veh OR4N2 (11742367_at) / RFU PRRT2 (11749266_a_at) / Fold change /veh PRRT2 (11749266_a_at) / RFU SNX32 (11753110_a_at) / Fold change /veh SNX32 (11753110_a_at) / RFU CDHR5 (11726645_a_at) / Fold change /veh CDHR5 (11726645_a_at) / RFU RCAN1 (11760418_a_at) / Fold change /veh RCAN1 (11760418_a_at) / RFU FAM167A (11723789_a_at) / Fold change /veh FAM167A (11723789_a_at) / RFU FAM26E (11764081_at) / Fold change /veh FAM26E (11764081_at) / RFU ISYNA1 (11749810_s_at) / Fold change /veh ISYNA1 (11749810_s_at) / RFU ACY1 (11761880_at) / Fold change /veh ACY1 (11761880_at) / RFU 11764098_at / Fold change /veh 11764098_at / RFU SAMD14 (11745864_x_at) / Fold change /veh SAMD14 (11745864_x_at) / RFU NPB (11741838_a_at) / Fold change /veh NPB (11741838_a_at) / RFU TMPRSS6 (11731388_a_at) / Fold change /veh TMPRSS6 (11731388_a_at) / RFU KRTAP10-2 (11738614_at) / Fold change /veh KRTAP10-2 (11738614_at) / RFU ARHGAP8 /// PRR5-ARHGAP8 (11727945_x_at) / Fold change /veh ARHGAP8 /// PRR5-ARHGAP8 (11727945_x_at) / RFU KRTAP5-7 /// NADSYN1 (11734609_at) / Fold change /veh KRTAP5-7 /// NADSYN1 (11734609_at) / RFU RASL12 (11751679_a_at) / Fold change /veh RASL12 (11751679_a_at) / RFU CDKN2B (11736163_a_at) / Fold change /veh CDKN2B (11736163_a_at) / RFU PRF1 (11729649_at) / Fold change /veh PRF1 (11729649_at) / RFU, ZNF638 /// ZNF638-IT1 / Fold change vs veh, ZNF638 /// ZNF638-IT1 / RFU, PANK3 / Fold change vs veh, PANK3 / RFU, SH3YL1 / Fold change vs veh, SH3YL1 / RFU, ZEB2 / Fold change vs veh, ZEB2 / RFU, NRIP1 / Fold change vs veh, NRIP1 / RFU, PTTG1IP / Fold change vs veh, PTTG1IP / RFU, CAPN2 / Fold change vs veh, CAPN2 / RFU, MED14 / Fold change vs veh, MED14 / RFU, SNORA58 / Fold change vs veh, SNORA58 / RFU, C1orf63 / Fold change vs veh, C1orf63 / RFU, LRRFIP1 / Fold change vs veh, LRRFIP1 / RFU, NDUFAF7 / Fold change vs veh, NDUFAF7 / RFU, SLC12A2 / Fold change vs veh, SLC12A2 / RFU, IBTK / Fold change vs veh, IBTK / RFU, ESF1 / Fold change vs veh, ESF1 / Fold change vs veh, TMEM50B / RFU, TAOK1 / Fold change vs veh, TAOK1 / RFU, ACBD3 / Fold change vs veh, ACBD3 / RFU, TMA16 / Fold change vs veh, TMA16 / RFU, RWDD3 / Fold change vs veh, RWDD3 / RFU, BCAT1 / Fold change vs veh, BCAT1 / RFU, EDEM3 / Fold change vs veh, EDEM3 / RFU, TMEM33 / Fold change vs veh, TMEM33 / RFU, WDR75 / Fold change vs veh, WDR75 / RFU, AHCTF1 / Fold change vs veh, AHCTF1 / RFU, TFRC / Fold change vs veh, TFRC / RFU, ZDHHC17 / Fold change vs veh, ZDHHC17 / RFU, NOM1 / Fold change vs veh, NOM1 / RFU, ARL8B / Fold change vs veh, ARL8B / RFU, ZBTB11 / Fold change vs veh, ZBTB11 / RFU, TAMM41 / Fold change vs veh, TAMM41 / RFU, KIAA1704 /// LOC100996395 / Fold change vs veh, KIAA1704 /// LOC100996395 / RFU, ING1 / Fold change vs veh, ING1 / RFU, TRMT61B / Fold change vs veh, TRMT61B / RFU, FUBP3 / Fold change vs veh, FUBP3 / RFU, TP53 / Fold change vs veh, TP53 / RFU, TNKS2 / Fold change vs veh, TNKS2 / RFU, ZFP14 / Fold change vs veh, ZFP14 / RFU, ACTR2 / Fold change vs veh, ACTR2 / RFU, PPP3R1 / Fold change vs veh, PPP3R1 / RFU, PIK3R1 / Fold change vs veh, PIK3R1 / RFU, HNRNPA1 / Fold change vs veh, HNRNPA1 / RFU, RNF170 / Fold change vs veh, RNF170 / RFU, ZNF28 / Fold change vs veh, ZNF28 / RFU, RNGTT / Fold change vs veh, RNGTT / RFU, OGT / Fold change vs veh, OGT / RFU, BRD1 / Fold change vs veh, BRD1 / RFU, MARS / Fold change vs veh, MARS / RFU, ZNF655 / Fold change vs veh, ZNF655 / RFU, FAHD1 / Fold change vs veh, FAHD1 / RFU, BDP1 / Fold change vs veh, BDP1 / RFU, LRRCC1 / Fold change vs veh, LRRCC1 / RFU, ARID1A / Fold change vs veh, ARID1A / RFU, ZNF146 / Fold change vs veh, ZNF146 / RFU, ZNF330 / Fold change vs veh, ZNF330 / RFU, GPN3 / Fold change vs veh, GPN3 / RFU, C9orf123 / Fold change vs veh, C9orf123 / RFU, N4BP2L2 / Fold change vs veh, N4BP2L2 / RFU, ARFIP1 / Fold change vs veh, ARFIP1 / RFU, FAM179B / Fold change vs veh, FAM179B / RFU, BCL10 / Fold change vs veh, BCL10 / RFU, UHRF1BP1L / Fold change vs veh, UHRF1BP1L / RFU, BET1 / Fold change vs veh, BET1 / RFU, CNOT2 / Fold change vs veh, CNOT2 / RFU, ZNF268 / Fold change vs veh, ZNF268 / Fold change vs veh, ZNF507 / RFU, DGCR2 / Fold change vs veh, DGCR2 / RFU, WDSUB1 / Fold change vs veh, WDSUB1 / Fold change vs veh, HSP90B1 /// MIR3652 / RFU, ADSS / Fold change vs veh, ADSS / RFU, GK / Fold change vs veh, GK / RFU, ZNF148 / Fold change vs veh, ZNF148 / RFU, TAF9 / Fold change vs veh, TAF9 / RFU, SLC1A5 / Fold change vs veh, SLC1A5 / RFU, SLMO2 / Fold change vs veh, SLMO2 / RFU, ABCC4 / Fold change vs veh, ABCC4 / RFU, LOC101060439 /// RAP1B / Fold change vs veh, LOC101060439 /// RAP1B / RFU, RFX7 / Fold change vs veh, RFX7 / RFU, GTPBP10 / Fold change vs veh, GTPBP10 / RFU, CNEP1R1 / Fold change vs veh, CNEP1R1 / RFU, BIVM-ERCC5 /// ERCC5 / Fold change vs veh, BIVM-ERCC5 /// ERCC5 / RFU, ILF3 / Fold change vs veh, ILF3 / RFU 11762660_at / Fold change /veh 11762660_at / RFU VCAN (11757783_s_at) / Fold change /veh VCAN (11757783_s_at) / RFU DDX43 (11728927_at) / Fold change /veh DDX43 (11728927_at) / RFU KRT8 (11758188_x_at) / Fold change /veh KRT8 (11758188_x_at) / RFU NKD1 (11759106_at) / Fold change /veh NKD1 (11759106_at) / RFU SRD5A1 (11742802_a_at) / Fold change /veh SRD5A1 (11742802_a_at) / RFU TPSAB1 /// TPSB2 (11721975_s_at) / Fold change /veh TPSAB1 /// TPSB2 (11721975_s_at) / RFU GSTM3 (11746129_a_at) / Fold change /veh GSTM3 (11746129_a_at) / RFU IL23R (11737362_x_at) / Fold change /veh IL23R (11737362_x_at) / RFU TMEM51 (11727254_a_at) / Fold change /veh TMEM51 (11727254_a_at) / RFU PIWIL2 (11732686_x_at) / Fold change /veh PIWIL2 (11732686_x_at) / RFU ORM1 (11744905_x_at) / Fold change /veh ORM1 (11744905_x_at) / RFU CCDC152 (11743942_at) / Fold change /veh CCDC152 (11743942_at) / RFU ECM1 (11717891_a_at) / Fold change /veh ECM1 (11717891_a_at) / RFU IL23R (11748794_a_at) / Fold change /veh IL23R (11748794_a_at) / RFU TNFAIP8L3 (11732012_x_at) / Fold change /veh TNFAIP8L3 (11732012_x_at) / RFU MBOAT4 (11741988_at) / Fold change /veh MBOAT4 (11741988_at) / RFU 11764193_at / Fold change /veh 11764193_at / RFU TMEM53 (11763286_at) / Fold change /veh TMEM53 (11763286_at) / RFU MAGEB2 (11727129_at) / Fold change /veh MAGEB2 (11727129_at) / RFU TMEM200A (11744735_a_at) / Fold change /veh TMEM200A (11744735_a_at) / RFU CCDC152 (11751479_a_at) / Fold change /veh CCDC152 (11751479_a_at) / RFU FAM211A (11726209_a_at) / Fold change /veh FAM211A (11726209_a_at) / RFU RGS16 (11746705_a_at) / Fold change /veh RGS16 (11746705_a_at) / RFU VCAN (11755009_s_at) / Fold change /veh VCAN (11755009_s_at) / RFU RHOB (11743442_s_at) / Fold change /veh RHOB (11743442_s_at) / RFU RGS16 (11720943_a_at) / Fold change /veh RGS16 (11720943_a_at) / RFU RGS16 (11720944_at) / Fold change /veh RGS16 (11720944_at) / RFU, VPS4B / Fold change vs veh, VPS4B / RFU, CREB1 / Fold change vs veh, CREB1 / RFU, DNAJC13 / Fold change vs veh, DNAJC13 / RFU, GNAQ / Fold change vs veh, GNAQ / RFU, CDK5R1 / Fold change vs veh, CDK5R1 / RFU, ZRANB3 / Fold change vs veh, ZRANB3 / RFU, CUL4A / Fold change vs veh, CUL4A / RFU, CCNY / Fold change vs veh, CCNY / RFU, UFL1 / Fold change vs veh, UFL1 / RFU, COG3 / Fold change vs veh, COG3 / RFU, DIAPH2 / Fold change vs veh, DIAPH2 / RFU, SKA2 / Fold change vs veh, SKA2 / RFU, AFF3 / Fold change vs veh, AFF3 / RFU, LMF1 / Fold change vs veh, LMF1 / RFU, IPO11 / Fold change vs veh, IPO11 / RFU, DFFB / Fold change vs veh, DFFB / RFU, FOXP1 / Fold change vs veh, FOXP1 / RFU, CARD8 / Fold change vs veh, CARD8 / RFU, STRN3 / Fold change vs veh, STRN3 / RFU, ADK / Fold change vs veh, ADK / RFU, RASSF2 / Fold change vs veh, RASSF2 / RFU, WIPF1 / Fold change vs veh, WIPF1 / RFU, LARP1B / Fold change vs veh, LARP1B / RFU, RASA1 / Fold change vs veh, RASA1 / RFU, RB1 / Fold change vs veh, RB1 / RFU, PPFIA1 / Fold change vs veh, PPFIA1 / RFU, MAT2A / Fold change vs veh, MAT2A / RFU, CCT5 / Fold change vs veh, CCT5 / RFU, WDR92 / Fold change vs veh, WDR92 / RFU, CUX1 / Fold change vs veh, CUX1 / RFU, TTC7A / Fold change vs veh, TTC7A / RFU, TMEM135 / Fold change vs veh, TMEM135 / RFU, DEPTOR / Fold change vs veh, DEPTOR / RFU, CPM / Fold change vs veh, CPM / RFU, DNAJB6 / Fold change vs veh, DNAJB6 / RFU, CACNA2D3 / Fold change vs veh, CACNA2D3 / RFU, DTX4 / Fold change vs veh, DTX4 / RFU, TFCP2 / Fold change vs veh, TFCP2 / RFU, GMCL1 /// GMCL1P1 / Fold change vs veh, GMCL1 /// GMCL1P1 / RFU, AEBP2 / Fold change vs veh, AEBP2 / RFU, SNHG1 /// SNORD22 /// SNORD25 /// SNORD26 /// SNORD27 /// SNORD28 /// SNORD29 /// SNORD31 / Fold change vs veh, SNHG1 /// SNORD22 /// SNORD25 /// SNORD26 /// SNORD27 /// SNORD28 /// SNORD29 /// SNORD31 / Fold change (Aza/veh), C12orf56 (ProbeSet 11735607_a_at) / Fold change (ACY-1035/veh), C12orf56 (ProbeSet 11735607_a_at) / Fold change (Aza/veh), FGFR1OP (ProbeSet 11751329_s_at) / Fold change (ACY-1035/veh), FGFR1OP (ProbeSet 11751329_s_at) / Fold change (Aza/veh), VPS36 (ProbeSet 11739960_a_at) / Fold change (ACY-1035/veh), VPS36 (ProbeSet 11739960_a_at) / RFU SYPL1 (11715823_x_at) / Fold change /veh SYPL1 (11715823_x_at) / RFU IGFBP7 (11715501_s_at) / Fold change /veh IGFBP7 (11715501_s_at) / RFU REEP3 (11722064_at) / Fold change /veh REEP3 (11722064_at) / RFU IGLL1 (11728026_x_at) / Fold change /veh IGLL1 (11728026_x_at): dose or concentration left out as unconfirmed. To be noted: ProbeSet 11728443_a_at; LIST B.

For the molecule `Nc1ccc(-c2cccs2)cc1NC(=O)c1ccc2c(c1)cc(C1CC1)n2CCN1CCOCC1` [ACY-1035], the “Fold change vs veh, TAOK1” value turned out to be 0.89.
